According to patent US20250154138A1, “Small Molecule IL-17A Modulators” (BeiGene, Ltd., priority 2022, published 2025):

Columns and labels:
[1] = biological target: human IL-17A / human IL-17RA (Homo sapiens (Human), UniProt Q16552); test: Human IL-17A biochemical assay (HTRF, blocking of IL-17A binding to IL-17RA); conditions: 0.4 nM IL-17A, 0.3 nM IL-17RA, max compound concentration 10 uM
Procedure, shortened: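 HTRF competition: 0.4 nM recombinant human IL-17A pre-incubated 3 h at room temperature with compound (top 10 uM, 2.7-fold, 10 points) in HEPES pH 7.5 buffer, then 0.3 nM IL-17RA added for 1 h, then anti-6His-Tb/anti-human IgG-XL665 detection for 1 h.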

[2] = test system: IL-17-induced GROα secretion from HT-29 cells; test: GROα release assay in human colorectal adenocarcinoma epithelial cell (HT-29, ELISA); format: cell-based; conditions: Homo sapiens, HT-29, 48 h, 10 ng/mL IL-17A, highest concentration 10 μM, read-out: Cellular assay HT29 cell/CXCL1 IC50
Procedure, shortened: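 HT-29 cells were exposed 48 h at 37°C to IL-17A (final 10 ng/mL) preincubated 15 min with compound (4-fold dilutions, top 10 μM). Secreted GROα was quantified by ELISA against a standard curve, and IC50 obtained by four-parameter fitting.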

Chain of human IL-17A / human IL-17RA (Q16552 24-155): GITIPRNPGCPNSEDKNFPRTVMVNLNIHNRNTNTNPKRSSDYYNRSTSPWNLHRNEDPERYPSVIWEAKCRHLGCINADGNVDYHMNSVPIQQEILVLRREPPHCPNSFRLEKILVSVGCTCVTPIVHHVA

Row | SMILES | IC50 [1] [nM] | IC50 [2] [nM]
1 | [2H]C([2H])([2H])NC(=O)C1(N2C[C@@H](C(C)C)NC2=O)Cc2ccc(NC(=O)[C@@H](NC(=O)c3ccnn3C)C3CCCCCC3)cc2C1 (stereo partly drawn) [Example 82, N-((1S)-1-cycloheptyl-2-((2-((R)-4-isopropyl-2-oxoimidazolidin-1-yl)-2-((methyl-d3)carbamoyl)-2,3-dihydro-1H-inden-5-yl)amino)-2-oxoethyl)-1-methyl-1H-pyrazole-5-carboxamide] | 32 | 156
2 | CC(C)[C@@H]1CN(C2(C(N)=O)Cc3ccc(NC(=O)[C@@H](NC(=O)c4ccnn4C)C4CCCCCC4)cc3C2)C(=O)N1 (stereo partly drawn) [Example 83, N-((1S)-2-((2-carbamoyl-2-((R)-4-isopropyl-2-oxoimidazolidin-1-yl)-2,3-dihydro-1H-inden-5-yl)amino)-1-cycloheptyl-2-oxoethyl)-1-methyl-1H-pyrazole-5-carboxamide] | 22 | 190
3 | CNC(=O)C1(N2C[C@@H](C(C)C)NC2=O)Cc2ccc(NC(=O)[C@@H](NC(=O)c3cccc(OC(C)C)c3)C3CCCCC3)cc2C1 (stereo partly drawn) [Example 84, 5-((S)-2-cyclohexyl-2-(3-isopropoxybenzamido)acetamido)-2-((R)-4-isopropyl-2-oxoimidazolidin-1-yl)-N-methyl-2,3-dihydro-1H-indene-2-carboxamide] | 37 | 94.4
4 | CC(C)[C@@H]1CN(C2(C(=O)NC(CO)C3CCC3)Cc3ccc(NC(=O)[C@@H](NC(=O)c4ccnn4C)C4CCCCC4)cc3C2)C(=O)N1 (stereo partly drawn) [Example 86, N-((1S)-2-((2-((1-cyclobutyl-2-hydroxyethyl)carbamoyl)-2-((R)-4-isopropyl-2-oxoimidazolidin-1-yl)-2,3-dihydro-1H-inden-5-yl)amino)-1-cyclohexyl-2-oxoethyl)-1-methyl-1H-pyrazole-5-carboxamide] | 22 | 23.5
5 | CNC(=O)C1(N2C[C@@H](C(C)C)NC2=O)Cc2ccc(NC(=O)C(NC(=O)c3ccnn3C)C3CCC(C)(C)CC3)cc2C1 (stereo partly drawn) [Example 87, N-(1-(4,4-dimethylcyclohexyl)-2-((2-((R)-4-isopropyl-2-oxoimidazolidin-1-yl)-2-(methylcarbamoyl)-2,3-dihydro-1H-inden-5-yl)amino)-2-oxoethyl)-1-methyl-1H-pyrazole-5-carboxamide] | 36 | 352
6 | CNC(=O)C1(N2C[C@@H](C(C)C)NC2=O)Cc2ccc(NC(=O)C(NC(=O)c3ccnn3C)C3CCC(C)CC3)cc2C1 (stereo partly drawn) [Example 89, N-(2-((2-((R)-4-isopropyl-2-oxoimidazolidin-1-yl)-2-(methylcarbamoyl)-2,3-dihydro-1H-inden-5-yl)amino)-1-(4-methylcyclohexyl)-2-oxoethyl)-1-methyl-1H-pyrazole-5-carboxamide] | 18 | 29.7
7 | CNC(=O)C1(N2C[C@@H](C(C)C)NC2=O)Cc2ccc(NC(=O)[C@@H](NC(=O)c3ccnn3C)C(C3CC3)C3CC3)cc2C1 (stereo partly drawn) [Example 90, N-((2S)-1,1-dicyclopropyl-3-((2-((R)-4-isopropyl-2-oxoimidazolidin-1-yl)-2-(methylcarbamoyl)-2,3-dihydro-1H-inden-5-yl)amino)-3-oxopropan-2-yl)-1-methyl-1H-pyrazole-5-carboxamide] | 37 | 48.6
8 | CNC(=O)C1(N2C[C@@H](C(C)C)NC2=O)Cc2ccc(NC(=O)[C@@H](NC(=O)c3ccnn3C(C)C)C(C3CC3)C3CC3)cc2C1 (stereo partly drawn) [Example 91, N-((2S)-1,1-dicyclopropyl-3-((2-((R)-4-isopropyl-2-oxoimidazolidin-1-yl)-2-(methylcarbamoyl)-2,3-dihydro-1H-inden-5-yl)amino)-3-oxopropan-2-yl)-1-isopropyl-1H-pyrazole-5-carboxamide] | 71 | 43
9 | CNC(=O)C1(N2CC(C3CC3)CNC2=O)Cc2ccc(NC(=O)[C@@H](NC(=O)c3ccnn3C)C3CCCCC3)cc2C1 (stereo partly drawn) [Example 94, N-((1S)-1-cyclohexyl-2-((2-(5-cyclopropyl-2-oxotetrahydropyrimidin-1(2H)-yl)-2-(methylcarbamoyl)-2,3-dihydro-1H-inden-5-yl)amino)-2-oxoethyl)-1-methyl-1H-pyrazole-5-carboxamide] | 40 | 118
10 | CNC(=O)C1(N2C[C@@H](C(C)C)NC2=O)Cc2ccc(NC(=O)C(NC(=O)c3ccnn3C)C3CCc4ccccc43)cc2C1 (stereo partly drawn) [Example 97, N-(1-(2,3-dihydro-1H-inden-1-yl)-2-((2-((R)-4-isopropyl-2-oxoimidazolidin-1-yl)-2-(methylcarbamoyl)-2,3-dihydro-1H-inden-5-yl)amino)-2-oxoethyl)-1-methyl-1H-pyrazole-5-carboxamide] | 535 | 1860
11 | CNC(=O)C1(N2CC(C)CNC2=O)Cc2ccc(NC(=O)[C@@H](NC(=O)c3ccnn3C)C3CCCCC3)cc2C1 (stereo partly drawn) [Example 98, N-((1S)-1-cyclohexyl-2-((2-(5-methyl-2-oxotetrahydropyrimidin-1(2H)-yl)-2-(methylcarbamoyl)-2,3-dihydro-1H-inden-5-yl)amino)-2-oxoethyl)-1-methyl-1H-pyrazole-5-carboxamide] | 628 | 3280
12 | CNC(=O)C1(N2CC(Cc3ccccc3)CNC2=O)Cc2ccc(NC(=O)[C@@H](NC(=O)c3ccnn3C)C3CCCCC3)cc2C1 (stereo partly drawn) [Example 99, N-((1S)-2-((2-(5-benzyl-2-oxotetrahydropyrimidin-1(2H)-yl)-2-(methylcarbamoyl)-2,3-dihydro-1H-inden-5-yl)amino)-1-cyclohexyl-2-oxoethyl)-1-methyl-1H-pyrazole-5-carboxamide] | 278 | 2480
13 | CNC(=O)C1(N2CC(C)(Cc3ccc(OC)cc3)CNC2=O)Cc2ccc(NC(=O)[C@@H](NC(=O)c3ccnn3C)C3CCCCC3)cc2C1 (stereo partly drawn) [Example 100, N-((1S)-1-cyclohexyl-2-((2-(5-(4-methoxybenzyl)-5-methyl-2-oxotetrahydropyrimidin-1(2H)-yl)-2-(methylcarbamoyl)-2,3-dihydro-1H-inden-5-yl)amino)-2-oxoethyl)-1-methyl-1H-pyrazole-5-carboxamide] | 886 | 2560
14 | CCC1CCC(C(NC(=O)c2ccnn2C)C(=O)Nc2ccc3c(c2)CC(C(=O)NC)(N2C[C@@H](C(C)C)NC2=O)C3)CC1 (stereo partly drawn) [Example 101, N-(1-(4-ethylcyclohexyl)-2-((2-((R)-4-isopropyl-2-oxoimidazolidin-1-yl)-2-(methylcarbamoyl)-2,3-dihydro-1H-inden-5-yl)amino)-2-oxoethyl)-1-methyl-1H-pyrazole-5-carboxamide] | 7.5 | 45.2
15 | CNC(=O)C1(N2CC3(CC3)CNC2=O)Cc2ccc(NC(=O)[C@@H](NC(=O)c3ccnn3C)C3CCCCC3)cc2C1 (stereo partly drawn) [Example 102, N-((1S)-1-cyclohexyl-2-((2-(methylcarbamoyl)-2-(6-oxo-5,7-diazaspiro[2.5]octan-5-yl)-2,3-dihydro-1H-inden-5-yl)amino)-2-oxoethyl)-1-methyl-1H-pyrazole-5-carboxamide] | 9.5 | 17.3
16 | CNC(=O)C1(N2C[C@@H](C(C)C)NC2=O)Cc2ccc(NC(=O)C(NC(=O)c3ccnn3C)C3CCCC(C)C3)cc2C1 (stereo partly drawn) [Example 104, N-(2-((2-((R)-4-isopropyl-2-oxoimidazolidin-1-yl)-2-(methylcarbamoyl)-2,3-dihydro-1H-inden-5-yl)amino)-1-(3-methylcyclohexyl)-2-oxoethyl)-1-methyl-1H-pyrazole-5-carboxamide] | 12 | 23.6
17 | CCC1(C)CNC(=O)N(C2(C(=O)NC)Cc3ccc(NC(=O)[C@@H](NC(=O)c4ccnn4C)C4CCCCC4)cc3C2)C1 (stereo partly drawn) [Example 105, N-((1S)-1-cyclohexyl-2-((2-(5-ethyl-5-methyl-2-oxotetrahydropyrimidin-1(2H)-yl)-2-(methylcarbamoyl)-2,3-dihydro-1H-inden-5-yl)amino)-2-oxoethyl)-1-methyl-1H-pyrazole-5-carboxamide] | 15 | 55.5
18 | CC#CCC1CN(C2(C(=O)NC)Cc3ccc(NC(=O)[C@@H](NC(=O)c4ccnn4C)C4CCCCC4)cc3C2)C(=O)N1 (stereo partly drawn) [Example 106, N-((1S)-2-((2-(4-(but-2-yn-1-yl)-2-oxoimidazolidin-1-yl)-2-(methylcarbamoyl)-2,3-dihydro-1H-inden-5-yl)amino)-1-cyclohexyl-2-oxoethyl)-1-methyl-1H-pyrazole-5-carboxamide] | 48 | 202
19 | CC(C)[C@@H]1CN(C2(C(=O)NC(CO)C3CCCC3)Cc3ccc(NC(=O)[C@@H](NC(=O)c4ccnn4C)C4CCCCC4)cc3C2)C(=O)N1 (stereo partly drawn) [Example 107, N-((1S)-1-cyclohexyl-2-((2-((1-cyclopentyl-2-hydroxyethyl)carbamoyl)-2-((R)-4-isopropyl-2-oxoimidazolidin-1-yl)-2,3-dihydro-1H-inden-5-yl)amino)-2-oxoethyl)-1-methyl-1H-pyrazole-5-carboxamide] | 25 | 34.5
20 | CNC(=O)C1(N2CC3(CCC3)CNC2=O)Cc2ccc(NC(=O)[C@@H](NC(=O)c3ccnn3C)C3CCCCC3)cc2C1 (stereo partly drawn) [Example 108, N-((1S)-1-cyclohexyl-2-((2-(methylcarbamoyl)-2-(7-oxo-6,8-diazaspiro[3.5]nonan-6-yl)-2,3-dihydro-1H-inden-5-yl)amino)-2-oxoethyl)-1-methyl-1H-pyrazole-5-carboxamide] | 5.8 | 42.3
21 | CNC(=O)C1(N2CC3(CCC3)CNC2=O)Cc2ccc(NC(=O)[C@@H](NC(=O)c3nonc3C)C3CCCCC3)cc2C1 (stereo partly drawn) [Example 110, N-((1S)-1-cyclohexyl-2-((2-(methylcarbamoyl)-2-(7-oxo-6,8-diazaspiro[3.5]nonan-6-yl)-2,3-dihydro-1H-inden-5-yl)amino)-2-oxoethyl)-4-methyl-1,2,5-oxadiazole-3-carboxamide] | 15 | 76.5
